What was measured:
TLR8 = TLR8 (Homo sapiens (Human), UniProt Q9NR97); experiment: TLR8 human peripheral blood mononuclear cell (PBMC) cell-based assay (Compound A as agonist; TNFα and IL12p40 readout); details: human PBMCs, TLR8 agonist Compound A at 800 nM, 6 hours, antagonist potency; read-out: TLR-8 EC50
TLR7 = TLR7 (Homo sapiens (Human), UniProt Q9NYK1); experiment: TLR7 human peripheral blood mononuclear cell (PBMC) cell-based assay (GS-986 as agonist; IL-6 and IFNα readout); details: human PBMCs, TLR7 agonist GS-986 at 400 nM, 6 hours, antagonist potency; read-out: TLR-7 EC50
Chain of TLR7 (Q9NYK1 27-1049): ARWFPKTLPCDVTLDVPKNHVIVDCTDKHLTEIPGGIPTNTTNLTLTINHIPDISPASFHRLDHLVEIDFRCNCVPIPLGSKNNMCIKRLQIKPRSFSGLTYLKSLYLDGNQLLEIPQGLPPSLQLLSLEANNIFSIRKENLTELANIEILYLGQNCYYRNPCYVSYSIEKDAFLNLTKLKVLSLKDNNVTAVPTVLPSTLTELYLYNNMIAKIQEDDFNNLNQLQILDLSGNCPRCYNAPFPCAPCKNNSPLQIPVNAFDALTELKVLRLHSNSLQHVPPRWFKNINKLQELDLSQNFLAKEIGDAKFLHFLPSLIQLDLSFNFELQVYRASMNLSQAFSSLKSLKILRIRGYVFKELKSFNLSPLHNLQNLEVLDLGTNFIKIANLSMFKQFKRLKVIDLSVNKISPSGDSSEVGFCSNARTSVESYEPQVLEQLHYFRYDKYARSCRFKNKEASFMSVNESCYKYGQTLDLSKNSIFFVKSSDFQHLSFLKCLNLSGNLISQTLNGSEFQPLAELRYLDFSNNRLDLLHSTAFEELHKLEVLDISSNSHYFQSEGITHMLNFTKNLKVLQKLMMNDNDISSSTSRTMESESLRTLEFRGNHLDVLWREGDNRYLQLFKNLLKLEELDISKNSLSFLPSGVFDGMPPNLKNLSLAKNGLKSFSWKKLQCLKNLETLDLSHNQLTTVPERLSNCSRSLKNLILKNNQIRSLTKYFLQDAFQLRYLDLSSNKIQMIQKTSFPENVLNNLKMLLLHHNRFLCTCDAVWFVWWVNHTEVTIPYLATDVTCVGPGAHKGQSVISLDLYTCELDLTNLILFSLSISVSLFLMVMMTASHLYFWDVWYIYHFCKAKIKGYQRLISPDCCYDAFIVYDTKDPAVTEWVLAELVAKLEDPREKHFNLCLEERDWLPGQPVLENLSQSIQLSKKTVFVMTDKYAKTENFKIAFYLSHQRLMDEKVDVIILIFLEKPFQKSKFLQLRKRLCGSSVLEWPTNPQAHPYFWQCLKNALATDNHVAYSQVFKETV
How it was run: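 Human PBMCs (100,000 cells/well) preincubated 1 h at 37 °C with antagonist in 10-point dose response, then stimulated with TLR7 agonist for a further 6 h at 37 °C, 5% CO2. Supernatant IL-6 and IFNα measured by electrochemiluminescence immunoassay.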

Chain of TLR8 (Q9NR97 27-1041): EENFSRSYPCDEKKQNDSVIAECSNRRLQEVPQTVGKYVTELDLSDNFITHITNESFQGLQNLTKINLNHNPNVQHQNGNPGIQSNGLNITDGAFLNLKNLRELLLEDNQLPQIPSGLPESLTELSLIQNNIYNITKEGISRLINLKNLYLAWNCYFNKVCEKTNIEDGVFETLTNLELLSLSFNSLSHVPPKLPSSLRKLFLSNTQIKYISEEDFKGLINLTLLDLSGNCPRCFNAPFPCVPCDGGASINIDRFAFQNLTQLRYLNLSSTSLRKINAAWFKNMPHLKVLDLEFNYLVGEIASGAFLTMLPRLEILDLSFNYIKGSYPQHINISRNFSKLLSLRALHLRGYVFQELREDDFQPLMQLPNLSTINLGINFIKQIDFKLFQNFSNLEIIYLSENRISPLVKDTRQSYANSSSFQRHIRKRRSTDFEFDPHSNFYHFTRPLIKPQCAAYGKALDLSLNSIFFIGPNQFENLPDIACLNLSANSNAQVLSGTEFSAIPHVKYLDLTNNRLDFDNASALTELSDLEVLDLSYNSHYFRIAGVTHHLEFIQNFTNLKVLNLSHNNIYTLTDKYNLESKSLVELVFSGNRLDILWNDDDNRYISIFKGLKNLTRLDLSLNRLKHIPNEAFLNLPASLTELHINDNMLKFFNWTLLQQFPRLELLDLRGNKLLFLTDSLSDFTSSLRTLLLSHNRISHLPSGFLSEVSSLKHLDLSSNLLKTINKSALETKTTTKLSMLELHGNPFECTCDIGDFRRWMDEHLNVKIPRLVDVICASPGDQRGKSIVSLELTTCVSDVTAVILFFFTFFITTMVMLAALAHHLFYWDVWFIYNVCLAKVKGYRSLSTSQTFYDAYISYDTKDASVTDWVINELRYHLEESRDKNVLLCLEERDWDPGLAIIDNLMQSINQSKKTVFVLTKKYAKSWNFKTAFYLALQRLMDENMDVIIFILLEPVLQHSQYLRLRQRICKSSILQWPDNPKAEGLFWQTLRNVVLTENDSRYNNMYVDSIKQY

Row | EC50 (TLR8) [nM] | EC50 (TLR7) [nM] | Compound
1 | 8.98 | 0.29 | Cc1c(C2CCC3(CC2)CNC3)sc2[nH]c(-c3cc(C)c4ncnn4c3)c(C(C)C)c12 [Example 24]
2 | 2.95 | 0.11 | Cc1c(C2CCC3(CC2)CN(CC(N)=O)C3)sc2[nH]c(-c3cc(C)c4ncnn4c3)c(C(C)C)c12 [Example 25]
3 | 1.61 | 0.68 | Cc1cc(-c2[nH]c3sc(C4CCN(CC(N)=O)CC4)cc3c2C(C)C)cn2ncnc12 [Example 26]
4 | 8.43 | 0.25 | Cc1c(C2CCN(C(C)C(N)=O)CC2)sc2[nH]c(-c3cc(C)c4ncnn4c3)c(C(C)C)c12 (stereo not drawn) [Example 27]
5 | 19.7 | 1.06 | CNC(=O)CN1CCC(c2sc3[nH]c(-c4cc(C)c5ncnn5c4)c(C(C)C)c3c2C)CC1 [Example 28]
6 | 0.21 | 0.94 | Cc1c(C2CC3(C2)CN(CC(N)=O)C3)sc2[nH]c(-c3cc(C)c4ncnn4c3)c(C(C)C)c12 [Example 29]
7 | 257 | 3.42 | Cc1c(C2CC3COCC(C2)N3CC(N)=O)sc2[nH]c(-c3cc(C)c4ncnn4c3)c(C(C)C)c12 (stereo not drawn) [Example 30]
8 | 0.05 | 3.15 | Cc1c(-c2[nH]c3sc(C4CC5(C4)CN(CC(N)=O)C5)c(C)c3c2C(C)C)cn2ncnc2c1C [Example 31]
9 | 8.32 | 0.05 | Cc1c(C2CCN(C(=O)N3CCNCC3)CC2)sc2[nH]c(-c3cc(C)c4ncnn4c3)c(C(C)C)c12 [Example 32]
10 | 45.9 | 7.19 | Cc1c(C2CC3COCC(C2)N3CCO)sc2[nH]c(-c3cc(C)c4ncnn4c3)c(C(C)C)c12 (stereo not drawn) [Example 33]
11 | 4.45 | 0.06 | Cc1c(C2CCN(C(=O)CN3CCCC3)CC2)sc2[nH]c(-c3cc(C)c4ncnn4c3)c(C(C)C)c12 [Example 34]
12 | 13 | 0.1 | Cc1c(C2CCN(C(=O)[C@H]3COCCN3)CC2)sc2[nH]c(-c3cc(C)c4ncnn4c3)c(C(C)C)c12 [Example 35]
13 | 20.8 | 0.54 | Cc1c(C2CCN(C(=O)[C@@H]3COCCN3)CC2)sc2[nH]c(-c3cc(C)c4ncnn4c3)c(C(C)C)c12 [Example 36]
14 | 9.95 | 0.2 | Cc1c(C2CCC3(CC2)CN(C(=O)[C@@H]2CCCN2)C3)sc2[nH]c(-c3cc(C)c4ncnn4c3)c(C(C)C)c12 [Example 37]
15 | 10.4 | 0.22 | Cc1c(C2CCC3(CC2)CN(C(=O)[C@H]2CCCN2)C3)sc2[nH]c(-c3cc(C)c4ncnn4c3)c(C(C)C)c12 [Example 38]
16 | 125 | 1.18 | Cc1c(C2CCN(C(=O)[C@H]3CC(F)(F)CN3)CC2)sc2[nH]c(-c3cc(C)c4ncnn4c3)c(C(C)C)c12 [Example 39]
17 | 3.14 | 0.07 | Cc1c(C2CCN(C(=O)C34CC(CN3)C4)CC2)sc2[nH]c(-c3cc(C)c4ncnn4c3)c(C(C)C)c12 [Example 40]
18 | 12.3 | 0.35 | Cc1c(C2CCN(C(=O)C34CC(F)(CN3)C4)CC2)sc2[nH]c(-c3cc(C)c4ncnn4c3)c(C(C)C)c12 [Example 41]
19 | 25.7 | 0.78 | Cc1c(C2CCN(C(=O)[C@H]3C[C@@H](F)CN3)CC2)sc2[nH]c(-c3cc(C)c4ncnn4c3)c(C(C)C)c12 [Example 42]
20 | 19 | 0.32 | Cc1c(C2CCN(C(=O)[C@H]3C[C@H](F)CN3)CC2)sc2[nH]c(-c3cc(C)c4ncnn4c3)c(C(C)C)c12 [Example 43]
21 | 13.1 | 0.37 | CO[C@H]1CN[C@@H](C(=O)N2CCC(c3sc4[nH]c(-c5cc(C)c6ncnn6c5)c(C(C)C)c4c3C)CC2)C1 [Example 44]
22 | 15.6 | 0.13 | CO[C@@H]1CN[C@@H](C(=O)N2CCC(c3sc4[nH]c(-c5cc(C)c6ncnn6c5)c(C(C)C)c4c3C)CC2)C1 [Example 45]
23 | 13 | 0.59 | Cc1c(C2CCN(C(=O)[C@H]3CNCCO3)CC2)sc2[nH]c(-c3cc(C)c4ncnn4c3)c(C(C)C)c12 [Example 46]
24 | 14.1 | 0.24 | Cc1c(C2CCN(C(=O)[C@@H]3CNCCO3)CC2)sc2[nH]c(-c3cc(C)c4ncnn4c3)c(C(C)C)c12 [Example 47]

Row | EC50 (TLR8) [nM] | EC50 (TLR7) [nM] | Compound
25 | 19.7 | 0.29 | Cc1c(C2CCN(C(=O)[C@H]3COCCN3C)CC2)sc2[nH]c(-c3cc(C)c4ncnn4c3)c(C(C)C)c12 [Example 48]
26 | 27.9 | 1.12 | Cc1c(C2CCN(C(=O)[C@@H]3COCCN3C)CC2)sc2[nH]c(-c3cc(C)c4ncnn4c3)c(C(C)C)c12 [Example 49]
27 | 35.9 | 1.76 | Cc1c(C2CCN(C(=O)CN3CCOCC3)CC2)sc2[nH]c(-c3cc(C)c4ncnn4c3)c(C(C)C)c12 [Example 50]
28 | 19.3 | 0.43 | Cc1c(C2CCN(C(=O)C3(C)COCCN3)CC2)sc2[nH]c(-c3cc(C)c4ncnn4c3)c(C(C)C)c12 (stereo not drawn) [Example 51]
29 | 1.12 | 2.08 | Cc1c(-c2[nH]c3sc(C4CC5(C4)CN(C(=O)[C@H]4COCCN4)C5)c(C)c3c2C(C)C)cn2ncnc2c1C [Example 52]
30 | 2.42 | 0.27 | Cc1c(C2CC3(C2)CN(C(=O)[C@H]2COCCN2)C3)sc2[nH]c(-c3cc(C)c4ncnn4c3)c(C(C)C)c12 [Example 53]
31 | 19.8 | 0.59 | Cc1c(C2CCN(C(=O)C3COCC(C)(C)N3)CC2)sc2[nH]c(-c3cc(C)c4ncnn4c3)c(C(C)C)c12 (stereo not drawn) [Example 54]
32 | 16.6 | 0.23 | Cc1c(C2CCN(C(=O)C34COC(CN3)C4)CC2)sc2[nH]c(-c3cc(C)c4ncnn4c3)c(C(C)C)c12 (stereo not drawn) [Example 55]
33 | 15.5 | 0.27 | Cc1cc(-c2[nH]c3sc(C4CCN(C(=O)[C@H]5COCCN5)CC4)cc3c2C(C)C)cn2ncnc12 [Example 57]
34 | 1.74 | 0.24 | Cc1c(C2CC3(CNC3)C2)sc2[nH]c(-c3cc(C)c4ncnn4c3)c(C(C)C)c12 [Example 58, 4-isopropyl-3-methyl-5-(8-methyl-[1,2,4]triazolo[1,5-a]pyridin-6-yl)-2-(2-azaspiro[3.3]heptan-6-yl)-6H-thieno[2,3-b]pyrrole]
35 | 28.4 | 2.97 | Cc1c(C2CC3COCC(C2)N3)sc2[nH]c(-c3cc(C)c4ncnn4c3)c(C(C)C)c12 (stereo not drawn) [Example 59]
36 | 0.93 | 1.81 | Cc1c(-c2[nH]c3sc(C4CC5(CNC5)C4)c(C)c3c2C(C)C)cn2ncnc2c1C [Example 60]
37 | 9.09 | 0.19 | Cc1c(C2CCC3(CNC3)C2)sc2[nH]c(-c3cc(C)c4ncnn4c3)c(C(C)C)c12 (stereo not drawn) [Example 61]
38 | 7.17 | 0.19 | Cc1c(C2CC3CCC(C2)N3CC(N)=O)sc2[nH]c(-c3cc(C)c4ncnn4c3)c(C(C)C)c12 (stereo not drawn) [Example 62, 2-(3-(4-isopropyl-3-methyl-5-(8-methyl-[1,2,4]triazolo[1,5-a]pyridin-6-yl)-6H-thieno[2,3-b]pyrrol-2-yl)-8-azabicyclo[3.2.1]octan-8-yl)acetamide]
39 | 27.3 | 0.26 | Cc1c(C2C3CCC2CN(CC(N)=O)C3)sc2[nH]c(-c3cc(C)c4ncnn4c3)c(C(C)C)c12 (stereo not drawn) [Example 63]
40 | 9.48 | 3.12 | Cc1c(C2CN(CC(N)=O)C2)sc2[nH]c(-c3cc(C)c4ncnn4c3)c(C(C)C)c12 [Example 64]
41 | 33.1 | 28.1 | Cc1c(C2C3CC2CN(CC(N)=O)C3)sc2[nH]c(-c3cc(C)c4ncnn4c3)c(C(C)C)c12 (stereo not drawn) [Example 65]
42 | 0.16 | 0.12 | Cc1c(C2C[C@@H]3C[C@H]2CN3CC(N)=O)sc2[nH]c(-c3cc(C)c4ncnn4c3)c(C(C)C)c12 (stereo partly drawn) [Example 66]
43 | 5.95 | 0.05 | Cc1c([C@H]2C[C@@H]3CN(CC(N)=O)C[C@@H]3C2)sc2[nH]c(-c3cc(C)c4ncnn4c3)c(C(C)C)c12 [Example 70, 2-((3aR,6aS)-5-(4-isopropyl-3-methyl-5-(8-methyl-[1,2,4]triazolo[1,5-a]pyridin-6-yl)-6H-thieno[2,3-b]pyrrol-2-yl)hexahydrocyclopenta[c]pyrrol-2(1H)-yl)acetamide]
44 | 7.75 | 0.45 | Cc1c([C@@H]2C[C@@H]3CN(CC(N)=O)C[C@@H]3C2)sc2[nH]c(-c3cc(C)c4ncnn4c3)c(C(C)C)c12 [Example 71, 2-((3aR,6aS)-5-(4-isopropyl-3-methyl-5-(8-methyl-[1,2,4]triazolo[1,5-a]pyridin-6-yl)-6H-thieno[2,3-b]pyrrol-2-yl)hexahydrocyclopenta[c]pyrrol-2(1H)-yl)acetamide]
45 | 0.11 | 0.1 | Cc1c(-c2[nH]c3sc([C@@H]4C[C@@H]5C[C@H]4CN5)c(C)c3c2C(C)C)cn2ncnc2c1C [Example 72, 2-((1S,4R,5R)-2-azabicyclo[2.2.1]heptan-5-yl)-5-(7,8-dimethyl-[1,2,4]triazolo[1,5-a]pyridin-6-yl)-4-isopropyl-3-methyl-6H-thieno[2,3-b]pyrrole]
46 | 4.16 | 0.1 | Cc1c(-c2[nH]c3sc(C4CCNCC4)c(C)c3c2C(C)C)cn2ncnc2c1C [Example 73]
47 | 0.94 | 0.05 | Cc1c(-c2[nH]c3sc([C@H]4C[C@H]5C[C@@H]4CN5)c(C)c3c2C(C)C)cn2ncnc2c1C [Example 74]
48 | 0.24 | 0.05 | Cc1c(-c2[nH]c3sc(C4CC5(CNCCO5)C4)c(C)c3c2C(C)C)cn2ncnc2c1C (stereo not drawn) [Example 76, 2-(5-(7,8-dimethyl-[1,2,4]triazolo[1,5-a]pyridin-6-yl)-4-isopropyl-3-methyl-6H-thieno[2,3-b]pyrrol-2-yl)-5-oxa-8-azaspiro[3.5]nonane]

Source: patent US11661431B2, “Thienopyrrole compounds” (Gilead Sciences, Inc., priority 2021, dated 2023)
